# How the values were obtained:
# Surinam grass = assay: Test C pre-/postemergence herbicide test; format: in vivo, Urochloa decumbens
# In short: (§1)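 Pre/post spray; non-phytotoxic solvent + surfactant. Post-timing 1–4 leaves, 2–18 cm. Read-out: visual % control vs untreated, day 12–14, greenhouse.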
# cocklebur = assay: Test C pre-/postemergence herbicide test; format: in vivo, Xanthium strumarium
# In short: as §1
# corn = assay: Test C pre-/postemergence herbicide test; format: in vivo, Zea mays
# In short: as §1
# woolly cupgrass = assay: Test C pre-/postemergence herbicide test; format: in vivo, Eriochloa villosa
# In short: as §1
# johnsongrass = assay: Test C pre-/postemergence herbicide test; format: in vivo, Sorghum halepense
# In short: as §1
# kochia = assay: Test C pre-/postemergence herbicide test; format: in vivo, Kochia scoparia
# In short: as §1
# lambsquarters = assay: Test C pre-/postemergence herbicide test; format: in vivo, Chenopodium album
# In short: as §1
# eastern black nightshade = assay: Test C pre-/postemergence herbicide test; format: in vivo, Solanum ptycanthum
# In short: as §1
# [1] = tested on: common (oilseed) sunflower; assay: Test C pre-/postemergence herbicide test; format: in vivo, Helianthus annuus
# In short: as §1
# rice = assay: Test C flooded paddy test; format: in vivo, Oryza sativa; conditions: for Plant response rating, Rice: 500 g ai/ha, visual rating after 12 to 14 days
# In short: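 Postemergence sprays applied to plants 2 to 18 cm tall (1- to 4-leaf stage); paddy species grown to 2-leaf stage under flooding. After 12 to 14 days in greenhouse, visual rating versus untreated controls on 0–100 scale (0 no effect, 100 complete control).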
# [2] = 62 g ai/ha, preemergence, scale 0 to 100
# [3] = 500 g ai/ha, scale 0 to 100 (0 no effect, 100 complete control), visual, 12 to 14 days, preemergence
# [4] = 250 g ai/ha, scale 0-100, preemergence
# [5] = 125 g ai/ha, scale 0 to 100 (0 no effect, 100 complete control)
# [6] = 250 g ai/ha, scale of 0 to 100, 0 is no effect, 100 is complete control
# [7] = scale 0 to 100 (0 no effect, 100 complete control)
# [8] = 125 g ai/ha, scale 0 (no effect) to 100 (complete control), visual, 12 to 14 days, preemergence
# [9] = Preemergence, 500 g ai/ha, scale 0 to 100, 0 no effect, 100 complete control
# [10] = 250 g ai/ha, scale 0 to 100 (0 no effect, 100 complete control), visual, 12 to 14 days, preemergence
compound,measurement,setting,value
CCNC(=O)c1ccc(F)c(N(C(C)=O)C(=O)c2cc(C(C)(C)C)nn2CC)c1 [Compound 399],"Plant response rating, Surinam Grass",Surinam grass; [2],95
same,"Plant response rating (0 = no effect, 100 = complete control), Surinam Grass","Surinam grass; 125 g ai/ha, preemergence",95
same,"Plant response rating, Surinam Grass",Surinam grass; [3],100
same,"Plant response rating, Cocklebur",cocklebur; [2],15
same,"Plant response rating (0 = no effect, 100 = complete control), Cocklebur","cocklebur; 125 g ai/ha, preemergence",65
same,"Plant response rating, Cocklebur",cocklebur; [4],70
same,"Plant response rating, Cocklebur",cocklebur; [3],80
same,"Plant response rating, Corn",corn; [2],60
same,"Plant response rating (0 = no effect, 100 = complete control), Corn","corn; 125 g ai/ha, preemergence",70
same,"Plant response rating, Corn",corn; [4],80
same,"Plant response rating, Corn",corn; [3],95
same,"Plant response rating, Cupgrass, Woolly",woolly cupgrass; [2],45
same,"Plant response rating (0 = no effect, 100 = complete control), Cupgrass, Woolly","woolly cupgrass; 125 g ai/ha, preemergence",65
same,"Plant response rating, Cupgrass, Woolly",woolly cupgrass; [4],80
same,"Plant response rating, Cupgrass, Woolly",woolly cupgrass; [3],95
same,"Plant response rating, Johnsongrass",johnsongrass; [2],95
same,"Plant response rating (0 = no effect, 100 = complete control), Johnsongrass","johnsongrass; 125 g ai/ha, preemergence",100
same,"Plant response rating, Johnsongrass",johnsongrass; [4],100
same,"Plant response rating, Johnsongrass",johnsongrass; [3],100
same,"Plant response rating (0 = no effect, 100 = complete control), Kochia","kochia; 125 g ai/ha, preemergence",80
same,"Plant response rating, Kochia",kochia; [4],100
same,"Plant response rating, Kochia",kochia; [3],100
same,"Plant response rating, Lambsquarters",lambsquarters; [2],100
same,"Plant response rating (0 = no effect, 100 = complete control), Lambsquarters","lambsquarters; 125 g ai/ha, preemergence",100
same,"Plant response rating, Lambsquarters",lambsquarters; [4],100
same,"Plant response rating, Lambsquarters",lambsquarters; [3],100
same,"Plant response rating, Nightshade",eastern black nightshade; [2],95
same,"Plant response rating (0 = no effect, 100 = complete control), Nightshade","eastern black nightshade; 125 g ai/ha, preemergence",100
same,"Plant response rating, Nightshade",eastern black nightshade; [3],100
same,"Plant response rating, Sunflower",[1]; [2],0
same,"Plant response rating (0 = no effect, 100 = complete control), Sunflower","[1]; 125 g ai/ha, preemergence",0
same,"Plant response rating, Sunflower",[1]; [3],35
same,Rice plant response rating,"rice; 62 g ai/ha, scale 0 to 100",65
same,Rice plant response rating,rice; [5],65
same,Rice plant response rating,rice; [6],75
same,"Plant response rating, Rice",rice; [7],75
CCc1nn(C(C)(C)C)cc1C(=O)Nc1cccc(C(C)=NO)c1 [Compound 188],"Plant response rating, Surinam Grass",Surinam grass; [2],20
same,"Plant response rating, Surinam Grass",Surinam grass; [8],30
same,Surinam Grass plant response rating,Surinam grass; [9],80
same,"Plant response rating, Cocklebur",cocklebur; [2],0
same,"Plant response rating, Cocklebur",cocklebur; [8],0
same,"Plant response rating, Cocklebur",cocklebur; [10],0
same,Cocklebur plant response rating,cocklebur; [9],0
same,"Plant response rating, Corn",corn; [2],0
same,"Plant response rating, Corn",corn; [8],0
same,"Plant response rating, Corn",corn; [10],0
same,Corn plant response rating,corn; [9],5
same,"Plant response rating, Cupgrass, Woolly",woolly cupgrass; [2],0
same,"Plant response rating, Cupgrass, Woolly",woolly cupgrass; [8],60
same,"Plant response rating, Cupgrass, Woolly",woolly cupgrass; [10],70
same,"Cupgrass, Woolly plant response rating",woolly cupgrass; [9],75
same,"Plant response rating, Johnsongrass",johnsongrass; [2],0
same,"Plant response rating, Johnsongrass",johnsongrass; [8],20
same,Johnsongrass plant response rating,johnsongrass; [9],75
same,"Plant response rating, Kochia",kochia; [2],0
same,"Plant response rating, Kochia",kochia; [8],0
same,Kochia plant response rating,kochia; [9],95
same,"Plant response rating, Lambsquarters",lambsquarters; [2],95
same,"Plant response rating, Lambsquarters",lambsquarters; [8],100
same,Lambsquarters plant response rating,lambsquarters; [9],100
same,"Plant response rating, Nightshade",eastern black nightshade; [2],80
same,"Plant response rating, Nightshade",eastern black nightshade; [8],95
same,Nightshade plant response rating,eastern black nightshade; [9],100
same,"Plant response rating, Sunflower",[1]; [2],0
same,"Plant response rating, Sunflower",[1]; [8],0
same,Sunflower plant response rating,[1]; [9],0
same,Rice plant response rating,"rice; 62 g ai/ha, scale 0 to 100 (0 no effect, 100 complete control)",35
same,Rice plant response rating,rice; [5],45
same,Rice plant response rating,rice; [6],65
same,"Plant response rating, Rice",rice; [7],75

# Reference: patent US20060069132A1, “Azolecarboxamide herbicides” (priority 2004, published 2006)
